# From PubChem BioAssay (NCI)
#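 1) Cells in 96-well plates. 2) Compound, 48 h, 5 concentrations. 3) Linear interpolation between surrounding doses. 4) Unreached endpoint = highest concentration. GI50: concentration for 50% inhibition of growth. TGI: concentration producing complete growth inhibition.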
# What was measured:
# Experiment in all cases: growth of human tumour cells (NCI), 48 h
# KM20L2 colon = system: KM20L2 colon
# HOP-18 NSCLC = system: HOP-18 NSCLC
# DMS 273 small cell lung = system: DMS 273 small cell lung
# M19-MEL melanoma = system: M19-MEL melanoma
# SNB-78 CNS = system: SNB-78 CNS
# XF 498 CNS = system: XF 498 CNS
# RXF-631 renal = system: RXF-631 renal
SMILES,TGI (KM20L2 colon),TGI (HOP-18 NSCLC),TGI (DMS 273 small cell lung),TGI (M19-MEL melanoma),TGI (SNB-78 CNS),TGI (XF 498 CNS),TGI (RXF-631 renal),GI50 (XF 498 CNS)
N#CC(NNC(=O)c1ccccc1O)c1ccc(O)cc1 (stereo not given),> 100 µM,> 100 µM,> 100 µM,> 100 µM,–,–,–,–
Cc1cc(=O)[nH]c(NN2C(Cl)C(=O)C2c2ccco2)n1 (stereo not given),> 100 µM,58.8 µM,> 100 µM,> 100 µM,> 100 µM,–,–,–
COc1ccccc1NC(=O)CSC(N)=O,> 100 µM,> 100 µM,> 100 µM,> 100 µM,> 100 µM,83.6 µM,–,–
NNc1nnc(-c2ccccc2)nc1Cc1ccccc1,> 100 µM,7.25 µM,> 100 µM,> 100 µM,–,79.3 µM,–,–
CCOC(=O)/C(C1=N[C@H](C(=O)OCC)CS1)=C(\O)c1ccccc1,> 100 µM,> 100 µM,–,–,> 100 µM,> 100 µM,> 100 µM,–
CC(C)C(=O)/C=C/c1ccccc1,> 100 µM,> 100 µM,> 100 µM,> 100 µM,> 100 µM,> 100 µM,–,–
Cc1ccc(Cl)c2c(=O)cc(-c3ccccc3)[nH]c12,–,> 100 µM,> 100 µM,> 100 µM,–,–,–,–
Cc1cccc(=O)c([O-])c1.Cc1cccc(=O)c([O-])c1.Cc1cccc(=O)c([O-])c1.Cc1cccc(=O)c([O-])c1.[Th+4],> 100 µM,> 100 µM,33 µM,61.8 µM,> 100 µM,64.9 µM,–,23.3 µM
O=C(NCCNCCO)N/N=C/c1ccccc1,–,> 100 µM,> 100 µM,–,> 100 µM,> 100 µM,–,–
